Measurements as given in patent US20230348988A1, “DNA Damage Repair Deficit in Cancer Cells” (THE REGENTS OF THE UNIVERSITY OF CALIFORNIA, priority 2020, published 2023).

Legend:
Assay type in all cases: cell-based
[1] = tested on: SAS cells; experiment: Pulsed-field gel electrophoresis of residual DSB after irradiation
Description: Next it was sought to test whether TGFβ inhibition would increase alt-EJ in the context of NHEJ inhibition. Here pulsed-field gel electrophoresis was used to measure residual DSB levels in SAS cells at various timepoints after irradiation (20 Gy). NHEJ was blocked by treating cells with the DNA-protein kinase inhibitor KU57788 1 hour before irradiation and TGFβ signaling was blocked 24 hours beforehand with LY36494 pretreatment.

[2] = tested on: SAS cells; experiment: NANOSTRING DDR gene panel expression in SAS cells; details: 24 h, TGFβ plus or minus inhibitor
Description: TGFβ regulates expression of DDR genes. To further investigate TGFβ impact on DDR, the expression of DNA repair-associated genes was evaluated using the NANOSTRING™ DDR gene panel. […] According to KEGG pathway analyses, expression of genes implicated in HR and NHEJ was increased by TGFβ and reduced by its inhibition. […] BRCA1 expression was increased by TGFβ and suppressed by LY2157299, as was ABL1 and POLD4. In contrast, TGFβ decreased and LY2157299 inhibition increased expression of LIG1, PARP1, and POLQ, which are key genes involved in alt-EJ.
(§1) Gene expression analyses methods: Total RNA was extracted. Sample RNA (250 ng) was used for the NANOSTRING™ DNA Damage Repair Gene Expression panel, consisting of 180 DDR genes and 12 housekeeping genes for normalization, according to manufacturer's instructions. Hybridization efficiency and background signals were evaluated based on internal positive and negative control probes analyzed using manufacturer's software. Ratio data from 2-3 biological repeats were used for further analysis and graphs.

[3] = tested on: U251 human GBM cell line; experiment: Quantitative expression assays of alt-EJ genes in U251 cells; details: time course, TGFβ signaling blockade with LY2157299
From the text: The above observations led to the hypothesis that TGFβ suppression of alt-EJ gene expression is a distinct mechanism that influences differential DNA repair pathway use. To test whether this biology is broadly employed beyond HNSC, glioblastoma (GBM) was considered because high TGFβ ligand and receptor expression correlate with poorer survival, and because TGFβ inhibition enhances radiosensitivity in GBM cell lines and primary tumor explants. First, the U251 human GBM cell line was investigated using the NANOSTRING™ panel. As observed in HNSC SAS cells, TGFβ inhibition increased expression of the key alt-EJ genes, LIG1, PARP1, and POLQ in GBM cells. […] U251 reporters (EJ2GFP) were established to evaluate alt-EJ repair.
as §1

Structure (SMILES): O=c1cc(N2CCOCC2)oc2c(-c3cccc4c3sc3ccccc34)cccc12 [KU57788]
- repair of radiation induced DSB ([1]; KU57788 1 hour before irradiation (20 Gy)): significantly inhibited

Structure (SMILES): c1ccc(-c2[nH]ncc2-c2ccnc3ccccc23)nc1 [LY36494]
- rescue of KU57788-inhibited repair of radiation induced DSB ([1]; LY36494 pretreatment 24 hours beforehand, with KU57788, 20 Gy): partially rescued

Structure (SMILES): Cc1cccc(-c2nn3c(c2-c2ccnc4ccc(C(N)=O)cc24)CCC3)n1 [LY2157299]
- BRCA1 expression (as was ABL1 and POLD4) [2]: suppressed
- TGFβ induction of CDKNJA [2]: blocked
- expression of LIG1, PARP1, and POLQ [2]: increased
- expression of LIG1, PARP1, and POLQ [3]: increased
